Measurements taken from publication PMC8623179, “Design and Microwave Synthesis of New (5Z) 5-Arylidene-2-thioxo-1,3-thiazolinidin-4-one and (5Z) 2-Amino-5-arylidene-1,3-thiazol-4(5H)-one as New Inhibitors of Protein Kinase DYRK1A” (Pharmaceuticals, 2021).
Where two headings read alike, the source gives them in different places.

Key:
CDK5/p25 = target: T1, CDK5/p25 (Homo sapiens, UniProt Q00535); test: CDK5/p25 kinase assay; format: biochemical; details: 15 μM ATP
T1 construct: made in house
Protocol: (§1) The twenty-two (5Z) 5-arylidene-2-thioxo-1,3-thiazolidin-4-ones 3a–v and the twenty-four (5Z) 2-amino-5-arylidene-1,3-thiazolidin-4(5H)-ones 5a–x were evaluated against four different and representative in vitro kinase assays DYRK1A (dual specificity tyrosine phosphorylation regulated kinase), CK1 δ/e (caseine kinase 1), CDK5/p25 (cyclin dependant kinase), and GSK3 α/β (glycogen synthase kinase 3) to evaluate their inhibition potency. […] All the compounds were initially tested at a 10 μM concentration.
(§2) After 30-min incubation at 30 °C, the reaction was stopped by harvesting, using a FilterMate harvester (Packard), onto P81 phospho-cellulose papers (GE Healthcare, Chicago, IL, USA) which were washed in 1% phosphoric acid. Scintillation fluid was added and the radioactivity measured in a Packard counter. Blank values were subtracted and activities calculated as pmoles of phosphate incorporated for the 30-min incubation. The activities were expressed in % of the maximal activity, i.e., in the absence of inhibitors. Controls were performed with appropriate dilutions of DMSO.
CDK5/p25 (human, recombinant) was prepared as previously described. […] ATP (3000 Ci/mmol; 10 mCi/mL) in a final volume of 30 μL. After 30-min incubation at 30 °C, 25 μL aliquots of supernatant were spotted onto 2.5 × 3 cm pieces of Whatman P81 phospho-cellulose paper, and, 20 s later, the filters were washed five times (for at least 5 min each time) in a solution of 10 mL phosphoric acid/litter of water. The wet filters were counted in the presence of 1 mL ACS (Amersham, UK) scintillation fluid.

DYRK1A = target: T2, DYRK1A (Rattus norvegicus, UniProt Q63470); test: DYRK1A kinase assay; format: biochemical; details: 15 μM ATP
T2 construct: GST; made in house; host or cells: Escherichia coli
Protocol: as §1
as §2, with “DMSO. […]” for “DMSO.”

GSK-3α/β = GSK-3α/β kinase assay; format: biochemical, porcine; details: 15 μM ATP, read-out: IC50 GSK3α/β
Protocol: as §1, §2
GSK-3α/β (porcine brain, native) was assayed, as described for CDK5/p25 but in Buffer A and using a GSK-3 specific substrate (GS-1: […]pEDEEE) (pS stands for phosphorylated serine). GS-1 was synthesized by Millegen (Labege, France).

Casein kinase 1 (CK1δ/ε) = test: CK1δ/ε kinase assay; format: biochemical, porcine; details: 15 μM ATP, read-out: IC50 CK1
Protocol: as §1, §2
Casein kinase 1 (CK1δ/ε) (porcine brain, native) was assayed with 0.67 µg of CKS peptide ([…]pSAYSITA), a CK1 specific substrate obtained from Millegen (Labege, France).

T1 sequence (Q00535 whole entry): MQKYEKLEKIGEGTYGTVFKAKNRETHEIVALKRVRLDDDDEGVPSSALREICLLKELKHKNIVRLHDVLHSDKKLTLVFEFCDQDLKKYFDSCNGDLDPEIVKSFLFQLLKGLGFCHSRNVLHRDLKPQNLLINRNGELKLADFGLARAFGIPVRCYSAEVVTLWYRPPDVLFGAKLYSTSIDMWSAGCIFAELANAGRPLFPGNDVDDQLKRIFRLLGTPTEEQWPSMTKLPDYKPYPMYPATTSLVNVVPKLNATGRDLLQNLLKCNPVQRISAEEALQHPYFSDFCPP
T1 sequence (Q15078 99-307 partner limits assumed): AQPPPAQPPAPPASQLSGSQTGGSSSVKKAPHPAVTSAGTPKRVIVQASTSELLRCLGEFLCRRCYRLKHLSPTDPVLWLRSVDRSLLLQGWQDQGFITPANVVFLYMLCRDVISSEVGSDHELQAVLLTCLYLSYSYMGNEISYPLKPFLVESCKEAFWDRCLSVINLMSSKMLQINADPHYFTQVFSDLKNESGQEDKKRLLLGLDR

Compound	IC50 (CDK5/p25; Table 5)	IC50 (DYRK1A; Table 5)	IC50 (GSK-3α/β; Table 5)	IC50 (Casein kinase 1 (CK1δ/ε); Table 5)	IC50 (CDK5/p25; Table 4)	IC50 (DYRK1A; Table 4)	IC50 (GSK-3α/β; Table 4)	IC50 (Casein kinase 1 (CK1δ/ε); Table 4)
O=C1N=C(Nc2ccncc2)S/C1=C\c1ccc2c(c1)OCO2 [Compound 5t, (5Z)-5-Benzo[1,3]dioxol-5-ylmethylene-2-(pyridin-4-yl)amino-1,3-thiazol-4(5H)-one]	> 10 µM	> 10000 nM	> 10 µM	> 10 µM	–	–	–	–
O=C1N=C(N2CCCCC2)S/C1=C\c1ccc2c(c1)OCCO2 [Compound 5p, (5Z)-5-(2,3-Dihydro-1,4-benzodioxin-6-ylmethylene)-2-(piperidin-1-yl)-1,3-thiazol-4(5H)-one]	> 10 µM	940 nM	> 10 µM	≥ 10 µM	–	–	–	–
O=C1N=C(N2CCSCC2)S/C1=C\c1ccc2c(c1)OCO2 [Compound 5g, (5Z)-5-(1,3-Benzodioxol-5-ylmethylene)-2-(thiomorpholin-1-yl)-1,3-thiazol-4(5H)-one]	> 10 µM	400 nM	≥ 10 µM	> 10 µM	–	–	–	–
O=C1NC(=S)S/C1=C\c1cccc(-c2ccc3c(c2)OCO3)n1 [Compound 3h, (5Z)-5-{[6-(1,3-Benzodioxol-5-yl)pyridin-2-yl]methylene}-2-thioxo-1,3-thiazolidin-4-one]	–	–	–	–	> 10 µM	350 nM	1.6 µM	> 10 µM
COc1ccc(/C=C2\SC(N3CCSCC3)=NC2=O)cc1OC [Compound 5h, (5Z)-5-(3,4-Dimethoxybenzylidene)-2-(thiomorpholin-1-yl)-1,3-thiazol-4(5H)-one]	> 10 µM	> 10000 nM	> 10 µM	> 10 µM	–	–	–	–
O=C(CCc1ccccc1)NN1C(=O)/C(=C/c2ccc3c(c2)OCO3)SC1=S [Compound 3r, (5Z)-N-(5-Benzo[1,3]dioxol-5-ylmethylene-4-oxo-2-thioxo-thiazolidin-3-yl)-3-phenyl-propionamide]	–	–	–	–	> 10 µM	> 10000 nM	> 10 µM	> 10 µM
O=C1N=C(N2CCOCC2)S/C1=C\c1ccc2c(c1)OCO2 [Compound 5a, (5Z)-5-(1,3-Benzodioxol-5-ylmethylene)-2-(morpholin-1-yl)-1,3-thiazol-4(5H)-one]	> 10 µM	630 nM	7.4 µM	> 10 µM	–	–	–	–
O=C1N=C(N2CCN(c3ccc(F)cc3)CC2)S/C1=C\c1ccc2c(c1)OCO2 [Compound 5k, (5Z)-5-(1,3-Benzodioxol-5-ylmethylene)-2-[1-(4-fluorophenyl)piperazin-1-yl]-1,3-thiazol-4(5H)-one]	> 10 µM	1600 nM	> 10 µM	> 10 µM	–	–	–	–
O=C1N=C(N2CCCCC2)S/C1=C\c1ccc2c(c1)OCO2 [Compound 5i, (5Z)-5-(1,3-Benzodioxol-5-ylmethylene)-2-(piperidin-1-yl)-1,3-thiazol-4(5H)-one]	> 10 µM	53 nM	7.4 µM	> 10 µM	–	–	–	–
O=C1N=C(N2CCN(Cc3ccc4c(c3)OCO4)CC2)S/C1=C\c1ccc2c(c1)OCO2 [Compound 5j, (5Z)-5-(1,3-Benzodioxol-5-ylmethylene)-2-[1-(1,3-benzodioxol-5-ylmethyl)piperazin-1-yl]-1,3-thiazol-4(5H)-one]	> 10 µM	≥ 10000 nM	> 10 µM	> 10 µM	–	–	–	–
O=C1N=C(N2CCN(c3ncccn3)CC2)S/C1=C\c1ccc2c(c1)OCO2 [Compound 5l, (5Z)-5-(1,3-Benzodioxol-5-ylmethylene)-2-[4-(pyrimidin-2-yl)piperazin-1-yl]-1,3-thiazol-4(5H)-one]	> 10 µM	1800 nM	> 10 µM	> 10 µM	–	–	–	–
O=C1NC(=S)S/C1=C\c1ccc(O)cc1 [Compound 3e, (5Z)-5-(4-Hydroxybenzylidene)-2-thioxo-1,3-thiazolidin-4-one]	–	–	–	–	> 10 µM	28 nM	> 10 µM	> 10 µM
O=C1N=C(N2CCNCC2)S/C1=C\c1ccc2c(c1)OCO2 [Compound 5e, (5Z)-5-(1,3-Benzodioxol-5-ylmethylene)-2-(piperazin-1-yl)-1,3-thiazol-4(5H)-one]	> 10 µM	1800 nM	≤ 8.8 µM	> 10 µM	–	–	–	–
COc1ccc(/C=C2\SC(N3CCOCC3)=NC2=O)cc1OC [Compound 5b, (5Z)-5-(3,4-Dimethoxybenzylidene)-2-(morpholin-1-yl)-1,3-thiazol-4(5H)-one]	> 10 µM	> 10000 nM	> 10 µM	> 10 µM	–	–	–	–

Second part, the compound after the results:

IC50 (CDK5/p25; Table 5)	IC50 (DYRK1A; Table 5)	IC50 (GSK-3α/β; Table 5)	IC50 (Casein kinase 1 (CK1δ/ε); Table 5)	IC50 (CDK5/p25; Table 4)	IC50 (DYRK1A; Table 4)	IC50 (GSK-3α/β; Table 4)	IC50 (Casein kinase 1 (CK1δ/ε); Table 4)	Compound
> 10 µM	610 nM	> 10 µM	> 10 µM	–	–	–	–	O=C1N=C(Nc2ccccc2)S/C1=C\c1ccc2c(c1)OCO2 [Compound 5r, (5Z)-5-Benzo[1,3]dioxol-5-ylmethylene-2-phenylamino-1,3-thiazol-4(5H)-one]
> 10 µM	900 nM	> 10 µM	> 10 µM	–	–	–	–	COc1ccc(NC2=NC(=O)/C(=C/c3ccc4c(c3)OCO4)S2)cc1 [Compound 5u, (5Z)-5-Benzo[1,3]dioxol-5-ylmethylene-2-(4-methoxy-phenylamino)-1,3-thiazol-4(5H)-one]
–	–	–	–	> 10 µM	> 10000 nM	> 10 µM	> 10 µM	O=C1NC(=S)S/C1=C\c1ccc2c(c1)OCCCO2 [Compound 3n, (5Z)-5-(3,4-Dihydro-2H-1,5-benzodioxepine-7-yl)methylene-2-thioxo-1,3-thiazolidin-4-one]
> 10 µM	600 nM	≥ 10 µM	> 10 µM	–	–	–	–	O=C1N=C(N2CCOCC2)S/C1=C\c1ccc2c(c1)CCO2 [Compound 5m, (5Z)-5-(2,3-Dihydro-benzofuran-5-ylmethylene)-2-(morpholin-4-yl)-1,3-thiazol-4(5H)-one]
–	–	–	–	> 10 µM	160 nM	> 10 µM	> 10 µM	O=C(O)CN1C(=O)/C(=C/c2ccc3c(c2)OCO3)SC1=S [Compound 3u, (5Z)-(5-Benzo[1,3]dioxol-5-ylmethylene-4-oxo-2-thioxo-thiazolidin-3-yl)-acetic acid]
> 10 µM	33 nM	≤ 10 µM	> 10 µM	–	–	–	–	O=C1N=C(Nc2ccccn2)S/C1=C\c1ccc2c(c1)OCO2 [Compound 5s, (5Z)-5-Benzo[1,3]dioxol-5-ylmethylene-2-(pyridin-2-yl)amino-1,3-thiazol-4(5H)-one]
> 10 µM	90 nM	4.7 µM	≥ 10 µM	–	–	–	–	O=C1N=C(N2CCCCC2)S/C1=C\c1ccc2c(c1)CCO2 [Compound 5o, (5Z)-5-(2,3-Dihydro-benzofuran-5-ylmethylene)-2-(piperidin-1-yl)-1,3-thiazol-4(5H)-one]
> 10 µM	70 nM	5.3 µM	> 10 µM	–	–	–	–	O=C1N=C(N2CCSCC2)S/C1=C\c1ccc2c(c1)CCO2 [Compound 5n, (5Z)-5-(2,3-Dihydro-benzofuran-5-ylmethylene)-2-(thiomorpholin-4-yl)-1,3-thiazol-4(5H)-one]
–	–	–	–	> 10 µM	> 10000 nM	> 10 µM	> 10 µM	O=C(Cc1ccccc1)NN1C(=O)/C(=C/c2ccc3c(c2)OCO3)SC1=S [Compound 3q, (5Z)-N-(5-Benzo[1,3]dioxol-5-ylmethylene-4-oxo-2-thioxo-thiazolidin-3-yl)-2-phenyl-acetamide]
